Data on 2 compounds can be found in patent US20060034882A1, “Yarns and fabrics having long-lasting mosquito repellent or antibacterial effect and their preparation” (FORMOSA TAFFETA CO., LTD., priority 2004, published 2006).

Each structure is given as a SMILES string.

Data set [1] in a line: amount of compound contained in the fabric before and after laundering (Soxhlet extraction, HPLC). The note with it: treated fabric of the Example; for Amounts, Laundering Number L25 (amount of the compound in the fabric after 25 launderings): after 25 launderings (JIS L02173-103), methylene dichloride extraction 4 hours; for Amounts, Laundering Number L0 (amount of the compound in the fabric before laundering): methylene dichloride extraction. The class given is physicochemical. On the procedure: The fabric is subjected to a test for determining the amount of Permethrin and octylisothiazolone contained therein.
The compounds contained in the fabric are extracted, and determined by High Performance Liquid Chromatography (HPLC).
The fabric is laundered 25 times (JIS L02173-103). Then, the fabric is extracted for 4 hours with methylene dichloride in a Soxhlet extractor. The extract thus obtained is applied into HPLC for determining the amount of Permethrin or octylisothiazolone.
The amount of the compound contained in the fabric is determined by extraction and HPLC. L0 represents the amount of the compound before laundering. L25 represents the amount of the compound after 25 launderings.

The test system of data set [2] is rabbits. The following applies: cited from earlier work.
For data set [3], the system named is rats. The note with it: cited from earlier work.

Regarding `CCCCCCCCn1sccc1=O` [Octylisothiazolone, octylisothiazolone], the “Amounts, Laundering Number L25 (amount of the compound in the fabric after 25 launderings)” value in data set [1] is listed as 10 ppm; in data set [1] (listed as octylisothiazolone), “greater than 8 ppm”. Besides, the “Amounts, Laundering Number L0 (amount of the compound in the fabric before laundering)” value in data set [1] turned out to be 80 ppm. Moreover, in data set [2], the “LD50 for acute dermal toxicity in rabbits” value is recorded as “up to 311 mg/kg”. Also, the “LD50 for acute oral toxicity in rats” value in data set [3] is on record as “up to 270 mg/kg”.
As to `CC1(C)C(C=C(Cl)Cl)C1C(=O)OCc1cccc(Oc2ccccc2)c1` (centres unmarked) [Permethrin], the “Amounts, Laundering Number L0 (amount of the compound in the fabric before laundering)” value in data set [1] is recorded as 536 ppm. In addition, the “LD50 for acute dermal toxicity in rabbits” value in data set [2] is given as “greater than 2500 mg/kg”. For the same compound, the “LD50 for acute oral toxicity in rats” value in data set [3] was “up to 470 mg/kg”.
